Data taken from patent US20070082930A1, “Pharmaceutical composition comprising a p2x7 receptor antagonist and a nonsteroidal anti-inflammatory drug” (ASTRAZENECA AB, priority 2003, published 2007).

System: streptococcal cell wall-induced arthritis
Assay: Rat streptococcal cell wall (SCW)-induced arthritis: ankle swelling and von Frey mechanical threshold
Format: in vivo
Conditions: oral bid, P2X7 antagonist 1 30 mg/kg
Description: Assessment of Anti-Inflammatory Activity of the COX-2 Inhibitor, Celecoxib/P2X7 Antagonist Combinations in Rat Streptococcal Cell Wall-Induced Arthritis.^1 1. Experimental procedure based on that described by Carlson R P, Jacobsen P B, ‘Comparison of adjuvant and streptococcal cell wall-induced arthritis in the rat’in Morgan D W, Marshall L A, editors; In Vivo Models of Inflammation. Basel: Birkhauser Verlag; 1999.
Streptococcal cell wall (SCW)-induced arthritis was induced in the left ankle of female Lewis rats. Animals were sensitised by intra-articular injection of 5 μg (in 20 μL) SCW (Lee Laboratories) into the left ankle. Ankle swelling was assessed 3 days after injection and non-responders (animals with no apparent ankle swelling) were rejected. Responding animals were randomly allocated to the test groups.
Arthritis was induced 21 days after sensitisation by intravenous (iv) injection of SCW (100 μg in 500 μL saline). Animals were monitored and assessed on a daily basis through to term-ination 6 days after induction. The rats were housed on sawdust and provided with food and water ad libitum.
In this example the P2X7 antagonist 1 was orally dosed at 30 mg/kg (4 mL/kg, bid). The compound was dosed as a suspension in 1% (w/v) methylcellulose in deionised water and was freshly prepared on a daily basis. Dosing commenced 1 day prior to induction of arthriis and continued on a daily basis through to termination on day 6 post-induction. Celecoxib (3 mg/kg) was dosed orally under the same regime as for P2X7 antagonist 1, administration of celecoxib occurring immediately after administration of P2X7 antagonist 1.
Ankle diameters were measured with vernier callipers on a daily basis from day −1. Mechanical thresholds were assessed using von Frey filaments on days −1, 1, 3 and 5. The filaments were applied in increasing weights to the ankle region on the footpad of both feet. The first filament to induce a withdrawal response was considered to be the threshold.
Effects on ankle swelling and mechanical threshold were calculated on an area under the curve (AUC) basis, as the sum of the differences from individual day −1 values. The size. and direction of the interaction was calculated and data analysis performed by ANOVA followed by Dunnett's test on the AUC data (SAS version 8.01).
The anti-inflammatory activity of the COX-2 inhibitor, rofecoxib in combination with a P2X7 antagonist was assesesd using the protocol described in Example 3A. The P2X7 antagonist 1 was dosed orally at 30 mg/kg (4 mL/kg, bid) as a suspension in 1% (w/v) methylcellulose in deionised water, together with rofecoxib (Merck Sharp & Dohme Limited) (1 mg/kg) in a single formulation. Dosing commenced 1 day prior to induction of arthritis and continued on a daily baisis through to termination on day 6 post-induction.
The anti-inflammatory activity of the COX-2 inhibitor, valdecoxib in combination with a P2X7 antagonist was assesesd using the protocol described in Example 3A. The P2X7 antagonist 1 was orally dosed at 30 mg/kg (4 mL/kg, bid) as a suspension in 1% (w/v) methylcellulose in deionised water, together with valdecoxib (Pfizer) (1 mg/kg) in a single formulation. Dosing commenced 1 day prior to induction of arthritis and continued on a daily baisis through to termination on day 6 post-induction.

[1] = Example 3A, female Lewis rats, day -1 to day 6 post-induction, celecoxib 3 mg/kg, given one immediately after the other
[2] = Example 3B, day -1 to day 6, rofecoxib 1 mg/kg, single formulation
[3] = Example 3C, day -1 to day 6, valdecoxib 1 mg/kg, single formulation

| Structure (SMILES) | % reduction of AUC (compared to arthritic vehicle control) Ankle swelling [1] [%] | % reduction of AUC (compared to arthritic vehicle control) Von Frey threshold [1] [%] | % reduction of AUC (compared to arthritic vehicle control) Ankle swelling [2] [%] | % reduction of AUC (compared to arthritic vehicle control) Von Frey threshold [2] [%] | % reduction of AUC (compared to arthritic vehicle control) Ankle swelling [3] [%] | % reduction of AUC (compared to arthritic vehicle control) Von Frey threshold [3] [%] |
| --- | --- | --- | --- | --- | --- | --- |
| Cc1ccc(-c2cc(C(F)(F)F)nn2-c2ccc(S(N)(=O)=O)cc2)cc1 [Celecoxib, 4-[5-(4-methylphenyl)-3-(trifluoromethyl)-1H-pyrazol-1-yl]benzenesulfonamide] | 63.0 ± 3.9 | 43.2 ± 15.9 | – | – | – | – |
| Cc1ccc(C(=O)N2CC3CNCC(C2)O3)cc1NC(=O)CC12CC3CC(CC(C3)C1)C2.Cl [P2X7 antagonist 1, N-[2-Methyl-5-(9-oxa-3,7-diazabicyclo[3.3.1]non-3-ylcarbonyl)phenyl]-tricyclo[3.3.1.1^3,7]decane-1-acetamide, hydrochloride] | 28.5 ± 13.5 | 21.1 ± 10.9 | 2.6 ± 11.6 | 26.5 ± 11.4 | 2.6 ± 11.6 | 26.5 ± 11.4 |
| CS(=O)(=O)c1ccc(C2=C(c3ccccc3)C(=O)OC2)cc1 [Rofecoxib, 4-[4′-(methylsulfonyl)phenyl]-3-phenyl-(5H)-furanone] | – | – | 50.6 ± 4.7 | 29.8 ± 7.8 | – | – |
| Cc1onc(-c2ccccc2)c1-c1ccc(S(N)(=O)=O)cc1 [Valdecoxib, 4-(5-methyl-3-phenyl-4-isoxazolyl)benzenesulfonamide] | – | – | – | – | 52.8 ± 3.1 | 37.8 ± 8.6 |
